# Results from patent US20140263071A1, “METHOD FOR COLLECTING METALS” (CHEMEC OY AB, priority 2011, published 2014).
# Marks after values point to notes of the source that are not given here.
# Key:
# [1] = Collection capacity (Example 10); conditions: 100 ppm starting concentration
# Procedure: A water solution (110 ml) containing known amount of single cationic element or elements, typically 0.5-200 ppm, was prepared from Merch Titrisol® standard solution. After adjusting pH by using acid (e.g. HCl or HNO3) or base (e.g. NaOH) to desired initial value, sample A (10 ml) was taken followed by adding 100 mg of selected solid complexation agent. The mixture was stirred at room temperature for 24 h and sample B (10 ml) was taken. Samples A and B were filtrated separately trough 0.2 μm syringe filter and the concentration of the studied element or elements in both solution was determined by using atomic absorption spectrophotometer. The expulsion percent was determined from the concentration differences between the sample solutions A and B.
# Capacity of 1a to collect selected metals were determined following the general procedure described above by using 100 ppm starting metal concentration in each experiment and 1a (100 mg) at selected pH. Amounts of removed metals from the mixture were determined by using AAS. Results are collected in table 5 and are given in mg of metal bound to 1 g of 1a.
# [2] = Simultaneous collection of Ni^2+, Zn^2+, Eu^3+, La^3+, Nd^3+, Y^3+, UO2^2+, Nb^5+ and Zr^4+ from TS 5 (Example 22); conditions: TS 5, 1a 1 g/100 ml, 24 h
# Procedure: A test solution containing 1-15 mg/l of Al^3+, Fe^2/3+, Mg^2+, Mn^2+, Ni^2+ and Zn^2+; 0.1-0.9 mg/l of Ca^2+ and Na^+; and trace amount of other Cr^3+, Co^2+, Cu^2+, Eu^3+, La^3+, Nd^3+, Y^3+, UO2^2+ and Nb^5+ cations were prepared.
# TS 5 (100 ml) was stirred with 1a (1 g) at room temperature for 24 h. After filtration trough 0.2 μm syringe filter metal concentration of Ni^2+, Zn^2+, Eu^3+, La^3+, Nd^3+, Y^3+, UO2^2+, Nb^5+ and Zr^4+ were determined by using ICP-AES and ICP-MS methods. The expulsions percent was calculated for each element from the concentration difference between initial and final solutions and the experimental results are given in Table 16.
# [3] = Purification of ash water from toxic waste disposal plant, TS 3 (Example 18)
# Procedure: An ash sample (200 g) obtained from toxic waste disposal plant was suspended to water (2.0 l) and stirred for 24 h and filtrated. Approximate metal concentrations (pH 3.62): 1-4 g/l of Ca^2+, K^+ and Na^+, 0.1-0.2 g/l of Al^3+, Mg^2+ and Zn^2+; ≦0.02 g/l of Cd^2+, Mn^2+, Pb^2+ and Sr^2+.
# TS 3, TS 3 diluted to 1:10 (TS 3a), TS 3 diluted to 1:100 (TS 3b) and Cd^2+, Pb^2+ and Zn^2+ spiked samples TS 3a and TS 3b were each treated with 1a (1.0 g) with stirring for 24 h. These five samples were separately filtrated trough 0.2 μm syringe filter and metal concentrations in each solution were determined by ICP-AES method before and after treatment with 1a.
# [4] = Collection of Sc^3+ from silicate soil (Example 25); conditions: digested spiked silicate soil solution (20 ml); 1a 100 mg; 24 h
# Procedure: Silicate soil (1000 g) was spiked with […] (767 mg). A sample (200 mg) was weighted to Teflon vial followed by adding concentrated HCl (9 ml) and HNO3 (3 ml) solutions. The mixture was heated under microwave for 50 min followed by adding HF (3 ml) and microvawe heating was continued until solids were dissolved totally. The resulting solution was treated with 4% H3BO3 (10 ml) with heating and sample A (5 ml) was taken. The rest of the solution (20 ml) was treated with 1a (100 mg) at room temperature for 24 h. After filtration trough 0.2 μm syringe filter Sc^3+ concentration before and after treated was determined by using AAS method to give 87% recovery of Sc^3+.
# [5] = Recycling and regeneration of solid bisphosphonate material (Example 27); conditions: 1a 700 mg
# Procedure: Compound 1a (700 mg) was weighed on sintered disc (porosity G-4) and aqueous CuCl2x2 H2O (20 ml) solution containing ca. 47 700 ppm of copper was passed slowly through the powder under vacuum. […] After the sintered disc was dry, aqueous HCl (25 ml, 2M) was passed slowly through the sintered disc. During this regeneration process solid bisphoshonate material on sintered disc turned from blue to white and filtered HCl solution was pale blue. The same procedure using the original 1a powder on sintered disc and a fresh CuCl2x2 H2O (20 ml) solution was repeated 20 times. The copper concentrations measured by AAS of the filtered HCl solution was 2294 ppm, 859 ppm and 713 ppm after first, 10th and 20th regeneration cycle, respectively. The amount of 1a after the last regeneration step was 630 mg (90% of the original amount).
compound,measurement,setting,value
"NCCCCCCCCCCC(O)(P(=O)(O)O)P(=O)(O)O [Compound 1a, 11-Amino-1-hydroxyundecane-1,1-diyldiphosphonic acid]",Capacity,"[1]; Ag^+, pH 2.5",94.6 mg/g
same,Capacity,"[1]; Au^3+, pH 4.0",19.0 mg/g
same,Capacity,"[1]; Ca^2+, pH 4.0",50.9 mg/g
same,Capacity,"[1]; Cd^2+, pH 4.0",74.1 mg/g
same,Capacity,"[1]; Co^2+, pH 4.5",85.5 mg/g
same,Capacity,"[1]; Cr^3+, pH 3.5",9.9 mg/g
same,Capacity,"[1]; Cu^2+, pH 4.0",61.6 mg/g
same,Capacity,"[1]; Fe^2+, pH 3.0",82.7 mg/g
same,Capacity,"[1]; Fe^3+, pH 3.0",15.2 mg/g
same,Capacity,"[1]; Mo^6+, pH 9.1",97.2 mg/g
same,Capacity,"[1]; Ni^2+, pH 4.0",13.1 mg/g
same,Capacity,"[1]; Pb^2+, pH 4.0",85.6 mg/g
same,Capacity [mg/g],"[1]; Sc^3+, pH 2.0",16.9^1) mg/g
same,Capacity,"[1]; Zn^2+, pH 4.0",70.9 mg/g
same,Expulsion [%],[2]; Eu^3+,98%
same,Expulsion [%],[2]; La^3+,100%
same,Expulsion [%],[2]; Nb^5+,100%
same,Expulsion [%],[2]; Nd^3+,100%
same,Expulsion [%],[2]; Ni^2+,72%
same,Expulsion [%],[2]; UO2^2+,100%
same,Expulsion [%],[2]; Y^3+,100%
same,Expulsion [%],[2]; Zn^2+,97%
same,Expulsion [%],[2]; Zr^4+,100%
same,Expulsion [%],"[3]; Spiked TS 3a, Al^3+",≥ 79.3^5) %
same,Expulsion [%],"[3]; Spiked TS 3a, Ca^2+",88.9%
same,Expulsion [%],"[3]; Spiked TS 3a, Cd^2+",75.6%
same,Expulsion [%],"[3]; Spiked TS 3a, K^+",1.8%
same,Expulsion [%],"[3]; Spiked TS 3a, Na^+",3.5%
same,Expulsion [%],"[3]; Spiked TS 3a, Pb^2+",≥ 97.8^5) %
same,Expulsion [%],"[3]; Spiked TS 3a, Sr^2+",14.6%
same,Expulsion [%],"[3]; Spiked TS 3a, Zn^2+",93.6%
same,Expulsion [%],"[3]; Spiked TS 3b, Ca^2+",95.2%
same,Expulsion [%],"[3]; Spiked TS 3b, Cd^2+",96.2%
same,Expulsion [%],"[3]; Spiked TS 3b, K^+",0.8%
same,Expulsion [%],"[3]; Spiked TS 3b, Na^+",7.1%
same,Expulsion [%],"[3]; Spiked TS 3b, Pb^2+",≥ 98.1^5) %
same,Expulsion [%],"[3]; Spiked TS 3b, Sr^2+",60.2%
same,Expulsion [%],"[3]; Spiked TS 3b, Zn^2+",91.3%
same,Expulsion [%],"[3]; TS 3, Al^3+",3.4^ %
same,Expulsion [%],"[3]; TS 3, Ca^2+",1.9%
same,Expulsion [%],"[3]; TS 3, Cd^2+",2.1%
same,Expulsion [%],"[3]; TS 3, K^+",2.9%
same,Expulsion [%],"[3]; TS 3, Mg^2+",1.5%
same,Expulsion [%],"[3]; TS 3, Mn^2+",1.9%
same,Expulsion [%],"[3]; TS 3, Na^+",10.8%
same,Expulsion [%],"[3]; TS 3, Pb^2+",65.7%
same,Expulsion [%],"[3]; TS 3, Sr^2+",2.1%
same,Expulsion [%],"[3]; TS 3, Zn^2+",3.6%
same,Expulsion [%],"[3]; TS 3a (TS 3 diluted 1:10), Al^3+",≥ 71.8^5) %
same,Expulsion [%],"[3]; TS 3a (TS 3 diluted 1:10), Ca^2+",88.1%
same,Expulsion [%],"[3]; TS 3a (TS 3 diluted 1:10), K^+",0%
same,Expulsion [%],"[3]; TS 3a (TS 3 diluted 1:10), Na^+",2.0%
same,Expulsion [%],"[3]; TS 3a (TS 3 diluted 1:10), Pb^2+",≥ 35.5^5) %
same,Expulsion [%],"[3]; TS 3a (TS 3 diluted 1:10), Sr^2+",12.5%
same,Expulsion [%],"[3]; TS 3a (TS 3 diluted 1:10), Zn^2+",0.0%
same,Expulsion [%],"[3]; TS 3b (TS 3 diluted 1:100), Ca^2+",93.1%
same,Expulsion [%],"[3]; TS 3b (TS 3 diluted 1:100), K^+",1.6%
same,Expulsion [%],"[3]; TS 3b (TS 3 diluted 1:100), Na^+",9.9%
same,Expulsion [%],"[3]; TS 3b (TS 3 diluted 1:100), Sr^2+",53.4%
same,Expulsion [%],"[3]; TS 3b (TS 3 diluted 1:100), Zn^2+",≥ 48.5^5) %
same,recovery of Sc^3+,[4],87%
same,copper concentration of the filtered HCl solution,[5]; after 10th regeneration cycle,859 ppm
same,copper concentration of the filtered HCl solution,[5]; after 20th regeneration cycle,713 ppm
same,copper concentration of the filtered HCl solution,[5]; after first regeneration cycle,2294 ppm
